Measured values as given in patent US7432392B2, “Ester derivatives and medical use thereof” (Japan Tobacco Inc., priority 2003, dated 2008).

target: T1, Microsomal triglyceride transfer protein (MTP) from bovine liver (Bos taurus, UniProt P55156); test: Inhibition of interliposomal triglyceride (TG) transfer activity by MTP; format: biochemical; conditions: MTP-mediated TG transfer between donor and acceptor liposomes, 37° C., one hour
T1 construct: the purified MTP was used for the test; from tissue; host or cells: bovine liver
T1 sequence (P55156 12-887): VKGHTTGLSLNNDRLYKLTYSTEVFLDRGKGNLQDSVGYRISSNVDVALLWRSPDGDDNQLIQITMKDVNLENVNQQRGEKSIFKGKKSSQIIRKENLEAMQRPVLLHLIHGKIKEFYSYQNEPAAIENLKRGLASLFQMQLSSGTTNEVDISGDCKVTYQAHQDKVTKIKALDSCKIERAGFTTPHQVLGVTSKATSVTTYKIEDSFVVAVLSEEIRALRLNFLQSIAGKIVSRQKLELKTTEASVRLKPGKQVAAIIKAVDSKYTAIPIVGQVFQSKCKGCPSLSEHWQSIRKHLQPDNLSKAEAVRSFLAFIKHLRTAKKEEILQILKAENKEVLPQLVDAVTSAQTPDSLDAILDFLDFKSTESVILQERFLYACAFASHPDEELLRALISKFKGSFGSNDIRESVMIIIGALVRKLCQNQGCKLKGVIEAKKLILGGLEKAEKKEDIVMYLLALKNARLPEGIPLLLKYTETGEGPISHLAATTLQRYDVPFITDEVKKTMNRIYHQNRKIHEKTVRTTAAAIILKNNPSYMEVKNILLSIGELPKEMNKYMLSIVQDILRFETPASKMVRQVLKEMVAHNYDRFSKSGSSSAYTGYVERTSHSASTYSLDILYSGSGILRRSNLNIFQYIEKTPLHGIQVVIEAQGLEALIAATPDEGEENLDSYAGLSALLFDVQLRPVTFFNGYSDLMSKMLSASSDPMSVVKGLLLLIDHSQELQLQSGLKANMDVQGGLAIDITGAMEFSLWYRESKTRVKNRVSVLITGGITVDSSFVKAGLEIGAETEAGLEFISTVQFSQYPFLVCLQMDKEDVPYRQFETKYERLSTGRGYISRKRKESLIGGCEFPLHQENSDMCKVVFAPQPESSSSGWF
T1 sequence (P05307 21-510 partner): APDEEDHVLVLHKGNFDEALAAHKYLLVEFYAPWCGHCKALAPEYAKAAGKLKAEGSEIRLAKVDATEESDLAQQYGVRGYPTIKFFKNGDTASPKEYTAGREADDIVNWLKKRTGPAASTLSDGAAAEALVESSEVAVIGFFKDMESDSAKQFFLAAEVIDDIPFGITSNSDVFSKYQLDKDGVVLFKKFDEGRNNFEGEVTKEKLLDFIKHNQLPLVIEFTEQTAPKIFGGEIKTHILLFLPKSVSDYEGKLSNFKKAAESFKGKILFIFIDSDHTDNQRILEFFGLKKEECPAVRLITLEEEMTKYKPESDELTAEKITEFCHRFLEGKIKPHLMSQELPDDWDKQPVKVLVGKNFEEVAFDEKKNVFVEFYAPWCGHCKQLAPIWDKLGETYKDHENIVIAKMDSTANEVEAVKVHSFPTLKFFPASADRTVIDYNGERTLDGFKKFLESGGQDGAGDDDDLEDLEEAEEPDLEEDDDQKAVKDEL
Method: Microsomal triglyceride transfer protein (MTP) from bovine liver was partially purified in such a way described below. A buffer (50 mM Tris, 250 mM sucrose, 1 mM EDTA, 0.02% NaN3 (pH 7.4)) for making a homogenate preparation was added to bovine liver, and the mixture was homogenated under ice-cooling, then centrifuged at 10,000×g (4° C., 30 minutes) The supernatant was adjusted to pH 5.1 with hydrochloric acid, and stirred for 30 minutes. The solution was further centrifuged at 10,000×g (4° C., 30 minutes), and 1 mM Tris buffer was added to the precipitated residue, and the mixture was adjusted to pH 8.6 with sodium hydroxide. After addition of 2.7 M ammonium sulfate solution, the mixture was stirred for 30 minutes, then centrifuged at 10,000×g (4° C., 40 minutes). The resulting supernatant was served as a crude extraction fraction of MTP and stored at −80° C. under freezing. In its practical use, the crude extraction fraction of MTP was purified by column chromatography on diethylaminoethyl (DEAE) Sepharose using FPLC (Fast Performance Liquid Chromatography) system, and the purified MTP was used for the test.
Small unilamellar-vesicle (SUV) liposome (donor, 0.25 mol % triolein, 5 mol % cardiolipin) labeled with ^14C-triolein and non-labeled SUV liposome (acceptor, 0.25 mol % triolein) were prepared. A fixed amount of donor and acceptor, and MTP were mixed with a sample dissolved in DMSO or with DMSO. The mixture was incubated in a 15 mM Tris hydrochloride buffer (pH 7.4) containing 40 mM sodium chloride, 1 mM EDTA (ethylenediaminetetraacetic acid), 0.02% NaN3 and 0.5% bovine serum albumin at 37° C. for one hour. After completion of the incubation, a suspension of DEAE cellulose (50% v/v) in 15 mM Tris hydrochloride buffer (pH 7.4) was added to the above solution, and the mixture was centrifuged to separate the donor and the acceptor. The radioactivity in the acceptor was measured by liquid scintillation counter. The value obtained by subtracting the radioactivity in the blank from the amount of radioactivity in the acceptor of a DMSO group was determined as MTP-mediated TG transfer activity, and it was compared with the value obtained by subtracting the radioactivity in the blank from the radioactivity in a sample group. The blank was prepared by adding 15 mM Tris-HCl buffer (pH 7.4) in place of MTP. Inhibition rate (%) was calculated from the values obtained according to the following equation.
Inhibition rate (%)=100×(1 minus ((radioactivity of sample group minus radioactivity of blank group)/(radioactivity of DMSO group minus radioactivity of blank group))). 50% Inhibition rate (IC50) was determined on the basis of the above equation.

IC50 [nM]	Structure (SMILES)
< 10	CCOC(=O)C(COC(=O)Cc1ccc(NC(=O)c2ccc(C)cc2-c2ccc(C(F)(F)F)cc2)c(OC(C)=O)c1)(C(=O)OCC)c1ccccc1 [Example 1-5]
< 10	CCOC(=O)C(COC(=O)Cc1ccc(NC(=O)c2ccc(C)cc2-c2ccc(C(F)(F)F)cc2)c(OC(=O)CC)c1)(C(=O)OCC)c1ccccc1 [Example 1-6]
< 10	CCCC(=O)Oc1cc(CC(=O)OCC(C(=O)OCC)(C(=O)OCC)c2ccccc2)ccc1NC(=O)c1ccc(C)cc1-c1ccc(C(F)(F)F)cc1 [Example 1-7]
< 10	CCOC(=O)C(COC(=O)Cc1ccc(N(C)C(=O)c2ccccc2-c2ccc(C(F)(F)F)cc2)c(OC(C)=O)c1)(C(=O)OCC)c1ccccc1 [Example 1-8]
< 10	CCOC(=O)C(COC(=O)Oc1cc(C(=O)N(C)C)c(NC(=O)c2ccccc2-c2ccc(C(F)(F)F)cc2)cc1F)(C(=O)OCC)c1ccccc1 [Example 2, 2-{5-Dimethylcarbamoyl-2-fluoro-4-[(4′-trifluoromethyl-biphenyl-2-carbonyl)amino]phenoxycarbonyloxymethyl}-2-phenylmalonic acid diethyl ester]
< 10	CCOC(=O)C(COC(=O)Oc1ccc2c(c1)N(C(C)C)C(=O)CN2C(=O)c1ccccc1-c1ccc(C(F)(F)F)cc1)(C(=O)OCC)c1ccccc1 [Example 2-2, 2-[4-Isopropyl-3-oxo-1-(4′-trifluoromethylbiphenyl-2-carbonyl)-1,2,3,4-tetrahydroquinoxalin-6-yloxycarbonyloxymethyl]-2-phenylmalonic acid diethyl ester]
10 to 100	CCOC(=O)C(COC(=O)Oc1ccc2c(c1)CCN2C(=O)c1ccccc1-c1ccc(C(F)(F)F)cc1)(C(=O)OCC)c1ccccc1 [Example 2-3]
< 10	CCOC(=O)C(COC(=O)Oc1ccc(NC(=O)c2ccccc2-c2ccc(C(F)(F)F)cc2)c(C(=O)N(C)C)c1)(C(=O)OCC)c1ccccc1 [Example 2-4]
< 10	CCOC(=O)C(COC(=O)OCc1ccc(NC(=O)c2ccccc2-c2ccc(C(F)(F)F)cc2)c(C(=O)N(C)C)c1)(C(=O)OCC)c1ccccc1 [Example 2-5]
< 10	CCOC(=O)C(COC(=O)Oc1cc(C(=O)N(C)C)c(NC(=O)c2ccccc2-c2ccc(C(F)(F)F)cc2)cc1Cl)(C(=O)OCC)c1ccccc1 [Example 2-6]
< 10	CCOC(=O)C(COC(=O)Oc1ccc(NC(=O)c2ccccc2-c2ccc(C(F)(F)F)cc2)c(C(=O)N(C)C)c1)(C(=O)OCC)c1cccs1 [Example 2-7]
< 10	CCOC(=O)C(COC(=O)Oc1ccc(NC(=O)c2ccc(C)cc2-c2ccc(C(F)(F)F)cc2)c(C(=O)N(C)C)c1)(C(=O)OCC)c1ccccc1 [Example 2-8]
< 10	CCOC(=O)C(COC(=O)Oc1ccc(NC(=O)c2ccc(C)cc2-c2ccc(C(F)(F)F)cc2)c(C(=O)N(C)C)c1)(C(=O)OCC)c1cccs1 [Example 2-9]
< 10	CCNC(=O)C(COC(=O)Oc1ccc(NC(=O)c2ccccc2-c2ccc(C(F)(F)F)cc2)c(C(=O)N(C)C)c1)(C(=O)NCC)c1ccccc1 [Example 2-10]
100 to 1000	CCNC(=O)C(COC(=O)Oc1cc(C(=O)N(C)C)c(NC(=O)c2ccccc2-c2ccc(C(F)(F)F)cc2)cc1F)(C(=O)NCC)c1ccccc1 [Example 2-11]
< 10	CCOC(=O)C(COC(=O)Oc1ccc(NC(=O)c2ccccc2-c2ccc(C(F)(F)F)cc2)c(C(=O)N(C)CC)c1)(C(=O)OCC)c1ccccc1 [Example 2-12]

IC50 [nM]	Structure (SMILES)
< 10	CCCN(C)C(=O)c1cc(OC(=O)OCC(C(=O)OCC)(C(=O)OCC)c2ccccc2)ccc1NC(=O)c1ccccc1-c1ccc(C(F)(F)F)cc1 [Example 2-13]
< 10	CCOC(=O)C(COC(=O)Oc1ccc(NC(=O)c2ccccc2-c2ccc(C(F)(F)F)cc2)c(C(=O)N2CCCC2)c1)(C(=O)OCC)c1ccccc1 [Example 2-14]
< 10	CCOC(=O)C(COC(=O)Oc1cc(C(=O)N(C)C)c(NC(=O)c2ccccc2-c2ccc(C(F)(F)F)cc2)cc1C)(C(=O)OCC)c1ccccc1 [Example 2-15]
< 10	CCOC(=O)C(COC(=O)Oc1ccc(NC(=O)c2ccc(C(F)(F)F)nc2-c2ccc(C(F)(F)F)cc2)c(C(=O)N(C)C)c1)(C(=O)OCC)c1ccccc1 [Example 2-16]
100 to 1000	CCOC(=O)C(COC(=O)Oc1ccc(N(C)C(=O)c2ccccc2-c2ccc(C(F)(F)F)cc2)c(C(=O)N(C)C)c1)(C(=O)OCC)c1ccccc1 [Example 2-17]
< 10	CCOC(=O)C(COC(=O)Oc1ccc(NC(=O)c2ccccc2-c2ccc(C(F)(F)F)cc2)c(C(=O)N(C)C)c1)(C(=O)OCC)c1ccccn1 [Example 2-18]
< 10	CCOC(=O)C(COC(=O)Oc1ccc(NC(=O)c2ccc(C)nc2-c2ccc(C(F)(F)F)cc2)c(C(=O)N(C)C)c1)(C(=O)OCC)c1ccccc1 [Example 2-19]
10 to 100	CCOC(=O)C(COC(=O)Oc1c(F)cc(NC(=O)c2ccccc2-c2ccc(C(F)(F)F)cc2)c(C(=O)N(C)C)c1F)(C(=O)OCC)c1ccccc1 [Example 2-20]
< 10	CCOC(=O)C(COC(=O)Oc1ccc(NC(=O)c2ccccc2-c2ccc(C(F)(F)F)cc2)c(C(=O)N(C)C)c1Cl)(C(=O)OCC)c1ccccc1 [Example 2-22]
< 10	CCOC(=O)C(COC(=O)Oc1ccc(NC(=O)c2ccc(C)nc2-c2ccc(C(F)(F)F)cc2)c(C(=O)N(C)C)c1)(C(=O)OCC)c1ccccn1 [Example 2-23]
< 10	CCOC(=O)C(COC(=O)Oc1ccc(NC(=O)c2cccnc2-c2ccc(C(F)(F)F)cc2)c(C(=O)N(C)C)c1)(C(=O)OCC)c1ccccc1 [Example 2-25]
< 10	CCOC(=O)C(COC(=O)Oc1c(F)cc(NC(=O)c2ccccc2-c2ccc(C(F)(F)F)cc2)c(C(=O)N(C)C)c1F)(C(=O)OCC)c1cccs1 [Example 2-26]
10 to 100	CCOC(=O)C(COC(=O)Oc1ccc(NC(=O)c2cnc(NC)nc2-c2ccc(C(F)(F)F)cc2)c(C(=O)N(C)C)c1)(C(=O)OCC)c1ccccc1 [Example 2-27]
< 10	CCOC(=O)C(COC(=O)Oc1ccc(NC(=O)c2cnc(N(C)C)nc2-c2ccc(C(F)(F)F)cc2)c(C(=O)N(C)C)c1)(C(=O)OCC)c1ccccc1 [Example 2-28]
< 10	CCOC(=O)C(COC(=O)Oc1c(F)cc(NC(=O)c2ccc(C)cc2-c2ccc(C(F)(F)F)cc2)c(C(=O)N(C)C)c1F)(C(=O)OCC)c1cccs1 [Example 2-29]
